This is an account of results in PMC6232370, “Metabolism and Bioactivation of Corynoline With Characterization of the Glutathione/Cysteine Conjugate and Evaluation of Its Hepatotoxicity in Mice” (Frontiers in Pharmacology, 2018).

Data set [1] is described as follows: Tissue distribution of CRL in mice. It counts as in vivo. The note with it: 250 mg/kg intragastric. How it is done: Thirty BALB/c male mice were fasted overnight but allowed access to water before drug administration. Five groups of mice (six mice per group) were intragastric administered a single dose of 250 mg/kg CRL. The mice in five groups were euthanized by decapitation at pre-dose, 0.5, 2, 4, and 8 h after dosing, respectively. Tissues including heart, liver, spleen, lung, kidney, and brain were dissected and washed with saline, then were blotted with filter paper and weighed accurately. The tissue samples were homogenized in ice-cold saline (1:3, w/v, g/mL). These tissue homogenates were then stored at −20°C and allowed to thaw at room temperature and vortex-mixed before processing. A 200 μL tissue sample was mixed with 5 μL IS solution (donepezil, 500 ng/mL). The mixture was deproteinized with 800 μL of acetonitrile, vortexed for 5 min, and then centrifuged at 17,000 × g for 10 min. An aliquot of 5 μL supernatant was then used for quantifying the content of CRL in each tissue by the LC-MS/MS.

For data set [2], the system named is human A549, SK-OV-3, SK-MEL-2, and HCT15 tumor cells. On the set-up: method as in Choi et al. (2007). The settings on record: ref Choi et al. (2007), read-out: 50% growth inhibition values; cited from earlier work.
Another data set concerns BALB/c male mice. Put plainly: Hepatotoxicity study in mice. The class given is in vivo. As to the method: Thirty-six BALB/c male mice were randomly divided into four groups (nine animals per group) including control group, low (125 mg/kg), middle (250 mg/kg), and high (500 mg/kg) three dosages group. CRL was dissolved firstly in DMSO and then prepared in 0.5% carboxymethyl cellulose sodium (CMC-Na) to make a suspension of 10, 20, and 30 mg/mL and the final concentration of DMSO in the suspension was no more than 5%. CRL was administered to the mice in different groups through oral gavage. Mice in control group were given equal volume 0.5% CMC-Na (contained 5% DMSO) solution with high dosage group. Blood samples were drawn from the orbital vein using cannulation under anesthesia at 24 h after oral administration. After centrifugation at 2,000 g for 15 min, the serum samples were stored at −20°C until analysis. Then mice were euthanized by decapitation after blood collection. Samples of liver were obtained and one part of which was fixed in 10% formaldehyde for observing histological change with optical microscope. The content of ALT and AST in mice serum was detected according the operation instruction of the kit.

[3] abbreviates: mice, 24 h after oral administration of 125, 250, and 500 mg/kg, P > 0.05.

`CN1Cc2c(ccc3c2OCO3)[C@@]2(C)[C@@H](O)Cc3cc4c(cc3[C@@H]12)OCO4` [CRL, Corynoline]: the “Blood–brain barrier passage” value in data set [1] is recorded as “could traverse the blood–brain barrier”. Also, in data set [1] (single dose, mean ± SD), the “Highest concentration level in brain” value was determined as 40.53 ± 20.50 µg/g, the “Highest concentration level in kidney” value is 68.73 ± 46.89 µg/g, the “Highest concentration level in liver” value is 92.91 ± 65.11 µg/g and the “Highest concentration level in lung” value was 27.27 ± 22.17 µg/g. In addition, the “Highest concentration level in spleen” value in data set [1] (single dose, mean ± SD) amounted to 25.22 ± 18.67 µg/g. This compound also had a concentration at 2 h in data set [1] (male, BALB/c, mouse, plasma, oral, at 2 h post dosing, mean ± SD) of 18400 ± 14200 ng/mL. The Tmax in data set [1] (male, BALB/c, mouse, tissues (heart, liver, spleen, lung, kidney, brain), po, tissues, post dosing, read-out: Time to reach the maximum concentration) was 2 h. For the same compound, in data set [2], the IC50 was 5.27 to 6.14 µM. Besides, the “Histopathological examination of the liver” value in the data set on BALB/c male mice (mice, 125, 250, and 500 mg/kg oral, 24 h) is “no pathological changes”. Also, in the data set with BALB/c male mice (setting [3]), the “ALT in serum and livers compared with the control group” value was “not significantly different”; the “AST in serum and livers compared with the control group” value is given as “not significantly different”. Moreover, the “Abnormal behaviors compared with control group” value with BALB/c male mice (mice, drug treatment groups 125–500 mg/kg oral, at about 10 min after administration, more pronounced with increasing dosage) was “lying on the bedding and shivering”. In addition, the “Body temperature of most mice” value with BALB/c male mice (mice, drug treatment groups 125–500 mg/kg oral, more pronounced with increasing dosage) is reported as “lower than normal”. In the data set on BALB/c male mice (mice, experimental dosage 125–500 mg/kg oral), the “Hepatotoxicity / acute liver injury” value was “no obvious hepatotoxicity”. Also, in the data set with BALB/c male mice (mouse, in vivo), the “Dead mice after drug administration (all dosage groups)” value was “three of them were dead”, the “Dead mice in high dosage group” value is listed as “two mice” and the “Dead mice in middle dosage group” value is “one mouse”.
